Data: US5688767A, “Treatment of endotoxin-associated disorders with cationic peptides” (priority 1996, dated 1997)
Converted amounts (≈) assume the structure as drawn.

Legend:
P. aeruginosa H103 LPS = experiment: Dansyl polymyxin (DPx) displacement from purified LPS; type: binding, Pseudomonas aeruginosa; conditions: 2.5 μM DPx, 3 μg/ml LPS, 5 mM HEPES pH 7.2, average of at least three trials; for IC50: read-out: I50, Value in μM
Procedure: In this assay, DPx was incubated with LPS to saturate the binding sites and then, while polycationic compounds are titrated into the reaction, displacement of the DPx was monitored by the decrease in fluorescence (FIG. 9). P. aeruginosa LPS was isolated as previously described (Darveau, et al., J of Bacteriology, 155:831, 1983) Dansyl polymyxin was synthesized as described by Schindler, et al., B. Antimicrobial Agents and Chemo, 8:95, 1975.
The method of Moore, et al., (Antimicrobial Agents and Chemo., 29:496, 1987), was used to test how much DPx was needed to saturate the binding sties on LPS. Briefly, 5 μl samples of 100 μM DPx were titrated sequentially into 1 ml of 3 μg/ml of LPS until a maximum fluorescence was reached. The fluorescence was measured in a Perkin-Elmer 650-10S fluorescence spectrophotometer with an excitation wavelength of 340 nm and an emission wavelength of 485 nm using slit widths of 5 nm. […] For the binding inhibition assays (Moore, et al., Antimicrobial Agents and Chemo., 29:496, 1987), 2.5 μM DPx was added to 3 μg/ml of H103 LPS in 5 mM HEPES pH 7.2. The test compounds were added 5 μl at a time and the decrease in fluorescence due to displacement of the DPx from the LPS was recorded.
When the data was plotted as a double reciprocal plot (FIG. 10), the X-intercept provided a value that is equal to -1/I50.

P. aeruginosa = experiment: microbe, parasite or virus in culture; type: cell-based, Pseudomonas aeruginosa
Procedure: (§1) The minimum inhibitory concentrations of (MIC) of CEME, CEMA and melittin were determined for a number of different bacteria (Table 2). Briefly, cells were grown overnight at 37° C. in LB-S (Luria broth without any salt supplement) and diluted one in 10,000 in the same medium to give concentrations of about 10^4 to 10^5 CFU/ml. The broth dilutions were set up in a 96 well microtiter plate by putting 200 μl of LB-S containing the initial concentration of antibiotic or compound in column 1 and 100 μl of the same medium in columns 2-12. The compounds were diluted by taking 100 μl of broth from column 1 and mixing it with column 2, resulting in a one in two dilution. This was continued to column 10. Finally, 10 μl of bacteria were pipetted into columns 1-11, and the plates incubated overnight at 37° C. The next day the plates were scored for growth in the wells, and the MIC determined.
(§2) Bacteria included the Bort strain of E. coli (Bortolussi, et al., Inf. Immun., 25:293, 1979) that was originally derived from a case of neonatal meningitis, and which is therefore considered a relevant pathogenic strain to study, and the 0111:B4 strain of E. coli (kindly provided by Dr. D. Morrison) which is a standard source of endotoxin. (Kelly, et al., Inf. Immun., 59:4491, 1991). In addition, P. aeruginosa PA01 strain H103, P. aeruginosa M2, P. aeruginosa K799, Eschericha coli UB 1005, Enterobacter cloacae 218S, Salmonella typhimurium MS7953s, Klebsiella pneumoniae ATCC 13883, Xanthomonas maltophilia ATCC 13637, and Acinetobacter calcoacetious 8193 were employed. LPS was obtained from E. coli Bort by the technique of Westphal and Jann, (Westphal, et al., Acad. Press, Inc. NY., 5:83) and from P. aeruginosa H103 by the method of Darveau and Hancock, (Darveau, et al., J. Bacteriol, 155:831, […]). E. coli 0111:B4 LPS was purchased from Sigma.

E. cloacae = experiment: microbe, parasite or virus in culture; type: cell-based, Enterobacter cloacae
Procedure: as §1, §2

S. aureus = experiment: microbe, parasite or virus in culture; type: cell-based, Staphylococcus aureus
Procedure: as §1

[1] = strain H188, Antibiotic sensitive
[2] = strain 218S, Parent of 218R1 (Table 2)
[3] = strain RN4220, Methicillin sensitive
[4] = strain SAP0017, Methicillin resistant

Compound | I50, Value in μg/ml (P. aeruginosa H103 LPS) [µg/mL] | IC50 (P. aeruginosa H103 LPS) [µM] | MIC (P. aeruginosa; Pseudomonas aeruginosa H103) [µg/mL] | MIC (P. aeruginosa; Pseudomonas aeruginosa K799) [µg/mL] | MIC (P. aeruginosa; strain H187, Parent of H188) [µg/mL] | MIC (P. aeruginosa; [1]) [µg/mL] | MIC (P. aeruginosa; strain H309, Wildtype) [µg/mL] | MIC (E. cloacae; Enterobacter cloacae 218S (Table 9)) [µg/mL] | MIC (E. cloacae; strain 218R1, β-lactam resistant) [µg/mL] | MIC (E. cloacae; [2]) [µg/mL] | MIC (S. aureus; [3]) [µg/mL] | MIC (S. aureus; [4]) [µg/mL]
CC[C@H](C)[C@H](NC(=O)CNC(=O)[C@@H](NC(=O)[C@H](CCCCN)NC(=O)[C@H](CCCCN)NC(=O)[C@H](Cc1ccccc1)NC(=O)[C@H](CC(C)C)NC(=O)[C@H](CCCCN)NC(=O)[C@H](Cc1c[nH]c2ccccc12)NC(=O)[C@@H](N)CCCCN)[C@@H](C)CC)C(=O)NCC(=O)N[C@@H](C)C(=O)N[C@H](C(=O)N[C@@H](CC(C)C)C(=O)N[C@@H](CCCCN)C(=O)N[C@H](C(=O)N[C@@H](CC(C)C)C(=O)N[C@H](C(=O)N[C@H](C(=O)NCC(=O)N[C@@H](CC(C)C)C(=O)N1CCC[C@H]1C(=O)N[C@@H](C)C(=O)N[C@@H](CC(C)C)C(=O)N[C@@H](CCCCN)C(=O)N[C@@H](CC(C)C)C(=O)N[C@H](C(=O)N[C@@H](CCCCN)C(=O)O)[C@@H](C)O)[C@@H](C)O)[C@@H](C)O)C(C)C)C(C)C [CEMA] | 4.12 ± 0.36 | 1.32 ± 0.117 | 8 (≈ 2.61 µM) | 2.8 (≈ 0.913 µM) | 2.8 (≈ 0.913 µM) | 1.4 (≈ 0.457 µM) | 2.8 (≈ 0.913 µM) | 4 (≈ 1.3 µM) | 1.4 (≈ 0.457 µM) | 2.8 (≈ 0.913 µM) | > 5.6 | > 5.6
polymyxin B | 2.97 ± 0.07 | 1.51 ± 0.04 | – | – | 0.5 | 0.06 | 0.5 | – | – | 0.5 | > 8 | > 8
